This is an account of results in paper PMC9837035 (Nature Communications, 2023).

For assay [1], the system named is γ-globin proteins in CD34+-derived cells. Put plainly: γ-globin protein quantification by LC-MS/MS in CD34+-derived cells. It is filed as cell-based, human. How it is done: The extraction and digestion of proteins were performed according to the method reported in a previous paper. Briefly, collected cell pellets, 120 μL of water, 12.5 μL of acetonitrile, and 12.5 μL of 1% formic acid were mixed and sonicated. The mixture was centrifuged to remove the cell debris and the supernatant was collected. Ten microliters of supernatant was reduced by dithiothreitol, alkylated with iodoacetamide, and digested with trypsin/Lys-C mix (Promega) in 50 mM ammonium bicarbonate (pH 8.0) (Sigma) at 37 °C overnight. For protein quantification analysis by LC–MS/MS, 10 pmol of stable isotope–labeled peptides (synthesized by the Support Unit for Bio-Material Analysis, RIKEN Center for Brain Science) were added to the digested sample as an internal standard. The digested sample was stored at −25 °C until analysis. The trypsinized sample was applied to an EASY-nLC 1000 liquid chromatograph (Thermo Fisher Scientific) and Q-Exactive mass spectrometer (Thermo Fisher Scientific) equipped with a nanospray ion source (Thermo Fisher Scientific). […]
Protein quantification was performed using Vanquish UHPLC (Thermo Fisher Scientific) and TSQ-Vantage EMR (Thermo Fisher Scientific) with a HESI-II ion source (Thermo Fisher Scientific) in multiple reaction monitoring (MRM) mode. […]

The next assay has as its target T1, G9a (Homo sapiens, UniProt Q96KQ7).
T1 sequence (Q96KQ7 1-1210): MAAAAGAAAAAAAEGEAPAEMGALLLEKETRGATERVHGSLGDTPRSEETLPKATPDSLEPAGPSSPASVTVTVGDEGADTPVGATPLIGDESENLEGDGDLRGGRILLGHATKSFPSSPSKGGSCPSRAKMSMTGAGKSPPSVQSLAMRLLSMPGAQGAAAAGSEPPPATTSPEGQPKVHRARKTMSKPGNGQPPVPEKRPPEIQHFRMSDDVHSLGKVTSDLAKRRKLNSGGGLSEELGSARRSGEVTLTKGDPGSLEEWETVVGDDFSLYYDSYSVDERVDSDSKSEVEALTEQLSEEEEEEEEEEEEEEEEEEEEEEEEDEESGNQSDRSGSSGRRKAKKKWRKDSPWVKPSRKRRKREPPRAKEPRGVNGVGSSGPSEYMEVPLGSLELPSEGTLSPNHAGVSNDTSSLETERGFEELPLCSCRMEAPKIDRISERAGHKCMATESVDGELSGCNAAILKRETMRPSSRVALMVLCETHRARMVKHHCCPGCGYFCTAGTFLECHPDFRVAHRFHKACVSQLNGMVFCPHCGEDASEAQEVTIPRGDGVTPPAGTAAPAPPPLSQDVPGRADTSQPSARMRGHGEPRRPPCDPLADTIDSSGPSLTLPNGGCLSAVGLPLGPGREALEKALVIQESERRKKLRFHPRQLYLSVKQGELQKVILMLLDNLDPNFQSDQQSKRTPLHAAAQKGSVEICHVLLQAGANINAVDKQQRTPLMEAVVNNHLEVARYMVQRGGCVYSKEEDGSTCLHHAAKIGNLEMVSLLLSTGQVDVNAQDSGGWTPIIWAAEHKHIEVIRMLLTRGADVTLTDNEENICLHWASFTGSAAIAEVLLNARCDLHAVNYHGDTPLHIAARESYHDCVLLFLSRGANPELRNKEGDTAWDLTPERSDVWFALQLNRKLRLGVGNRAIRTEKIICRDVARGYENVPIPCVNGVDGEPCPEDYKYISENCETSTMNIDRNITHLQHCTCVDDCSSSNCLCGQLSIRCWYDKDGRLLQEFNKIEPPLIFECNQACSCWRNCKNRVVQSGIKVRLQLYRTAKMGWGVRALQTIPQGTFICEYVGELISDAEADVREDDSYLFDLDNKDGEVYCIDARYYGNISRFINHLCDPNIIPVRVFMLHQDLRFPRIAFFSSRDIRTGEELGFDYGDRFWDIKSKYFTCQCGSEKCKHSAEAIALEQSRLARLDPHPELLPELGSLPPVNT
Put plainly: Radioisotope-based methyltransferase assay (selectivity). The note with it: 1 μM SAM.

A further assay deals with T2, PRMT4 (Homo sapiens, UniProt Q86X55).
T2 construct: purchased Reaction Biology
T2 sequence (Q86X55 whole entry): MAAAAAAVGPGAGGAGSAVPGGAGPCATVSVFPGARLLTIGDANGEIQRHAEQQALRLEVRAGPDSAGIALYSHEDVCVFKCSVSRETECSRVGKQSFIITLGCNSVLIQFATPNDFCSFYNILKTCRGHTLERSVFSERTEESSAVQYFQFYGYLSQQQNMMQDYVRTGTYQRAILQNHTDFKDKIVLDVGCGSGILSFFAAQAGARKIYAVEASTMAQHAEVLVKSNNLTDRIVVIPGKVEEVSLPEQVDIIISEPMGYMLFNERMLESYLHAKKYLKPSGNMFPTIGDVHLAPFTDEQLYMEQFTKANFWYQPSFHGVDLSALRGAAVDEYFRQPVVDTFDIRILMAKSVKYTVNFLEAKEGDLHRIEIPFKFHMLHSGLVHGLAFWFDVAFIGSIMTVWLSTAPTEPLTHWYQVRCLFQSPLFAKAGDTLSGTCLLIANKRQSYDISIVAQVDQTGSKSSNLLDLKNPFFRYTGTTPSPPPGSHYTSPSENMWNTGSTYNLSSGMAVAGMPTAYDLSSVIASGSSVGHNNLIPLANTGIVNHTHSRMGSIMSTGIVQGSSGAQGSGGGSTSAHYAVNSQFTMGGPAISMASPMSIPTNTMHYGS
The description is as above. It is filed as biochemical.

A further assay deals with EZH1 (Homo sapiens, UniProt Q92800). The description is as above.
Sequence of EZH1 (Q92800 whole entry): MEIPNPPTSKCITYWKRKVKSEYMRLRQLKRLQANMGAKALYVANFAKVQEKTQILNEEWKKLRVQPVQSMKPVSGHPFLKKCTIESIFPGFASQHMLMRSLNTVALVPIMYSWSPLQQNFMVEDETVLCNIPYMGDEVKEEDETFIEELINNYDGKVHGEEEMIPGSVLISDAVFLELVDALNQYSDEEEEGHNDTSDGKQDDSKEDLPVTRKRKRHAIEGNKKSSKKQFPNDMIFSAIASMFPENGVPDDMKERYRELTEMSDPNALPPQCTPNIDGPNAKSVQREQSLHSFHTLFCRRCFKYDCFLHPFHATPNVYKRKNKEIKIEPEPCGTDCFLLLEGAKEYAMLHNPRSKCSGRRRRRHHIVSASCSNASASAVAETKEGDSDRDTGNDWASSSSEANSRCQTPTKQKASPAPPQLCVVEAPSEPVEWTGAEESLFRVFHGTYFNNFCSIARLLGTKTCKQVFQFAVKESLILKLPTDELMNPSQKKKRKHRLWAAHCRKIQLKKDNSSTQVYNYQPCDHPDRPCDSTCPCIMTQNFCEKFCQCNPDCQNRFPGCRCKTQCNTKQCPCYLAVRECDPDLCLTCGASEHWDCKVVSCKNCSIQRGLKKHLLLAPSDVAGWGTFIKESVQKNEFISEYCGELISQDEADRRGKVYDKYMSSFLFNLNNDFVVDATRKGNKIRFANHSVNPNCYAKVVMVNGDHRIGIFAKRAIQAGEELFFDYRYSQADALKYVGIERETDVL
Sequence of EZH1 (O75530 whole entry partner): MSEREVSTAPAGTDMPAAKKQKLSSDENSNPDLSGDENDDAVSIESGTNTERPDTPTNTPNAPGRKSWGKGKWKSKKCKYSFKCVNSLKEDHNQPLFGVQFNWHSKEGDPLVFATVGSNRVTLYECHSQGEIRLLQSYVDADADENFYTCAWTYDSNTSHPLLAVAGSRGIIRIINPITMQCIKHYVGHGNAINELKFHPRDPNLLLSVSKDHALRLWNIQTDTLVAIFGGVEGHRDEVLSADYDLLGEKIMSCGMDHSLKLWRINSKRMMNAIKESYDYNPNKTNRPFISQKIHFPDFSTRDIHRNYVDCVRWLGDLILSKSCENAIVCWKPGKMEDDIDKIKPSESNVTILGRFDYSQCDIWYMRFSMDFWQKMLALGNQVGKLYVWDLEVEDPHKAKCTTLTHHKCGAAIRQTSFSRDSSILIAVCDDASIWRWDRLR
Sequence of EZH1 (Q15022 whole entry partner): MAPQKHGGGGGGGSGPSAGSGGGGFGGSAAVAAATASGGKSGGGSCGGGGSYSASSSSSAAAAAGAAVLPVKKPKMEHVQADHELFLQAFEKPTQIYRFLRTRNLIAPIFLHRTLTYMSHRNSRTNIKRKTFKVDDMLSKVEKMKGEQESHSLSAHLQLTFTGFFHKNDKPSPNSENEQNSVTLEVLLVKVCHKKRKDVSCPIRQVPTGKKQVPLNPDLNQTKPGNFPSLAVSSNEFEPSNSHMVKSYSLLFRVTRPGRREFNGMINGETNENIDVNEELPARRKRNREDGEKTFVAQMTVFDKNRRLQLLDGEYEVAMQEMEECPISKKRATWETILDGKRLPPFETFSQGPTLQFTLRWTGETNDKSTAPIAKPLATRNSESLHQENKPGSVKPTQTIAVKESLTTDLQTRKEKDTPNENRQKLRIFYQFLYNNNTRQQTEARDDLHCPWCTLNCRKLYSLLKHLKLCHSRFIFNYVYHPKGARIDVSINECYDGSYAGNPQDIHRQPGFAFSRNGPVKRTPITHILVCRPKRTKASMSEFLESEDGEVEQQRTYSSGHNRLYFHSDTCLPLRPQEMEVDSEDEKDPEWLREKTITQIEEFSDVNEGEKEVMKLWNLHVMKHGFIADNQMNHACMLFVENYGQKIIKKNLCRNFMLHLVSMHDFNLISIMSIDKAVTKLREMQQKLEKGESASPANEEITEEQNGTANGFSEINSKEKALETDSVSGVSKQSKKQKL
Sequence of EZH1 (Q09028 whole entry partner): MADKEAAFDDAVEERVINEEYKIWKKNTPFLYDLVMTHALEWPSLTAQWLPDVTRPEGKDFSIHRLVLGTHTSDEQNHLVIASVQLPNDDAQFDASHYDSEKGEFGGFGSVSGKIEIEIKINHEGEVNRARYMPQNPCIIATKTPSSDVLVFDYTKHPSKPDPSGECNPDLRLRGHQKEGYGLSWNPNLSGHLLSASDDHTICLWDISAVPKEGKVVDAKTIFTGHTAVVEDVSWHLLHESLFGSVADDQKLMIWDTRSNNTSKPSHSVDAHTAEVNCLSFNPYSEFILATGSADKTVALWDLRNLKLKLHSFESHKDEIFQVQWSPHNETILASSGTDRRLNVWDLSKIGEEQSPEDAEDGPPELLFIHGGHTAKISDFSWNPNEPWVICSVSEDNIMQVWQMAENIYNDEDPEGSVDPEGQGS
Sequence of EZH1 (Q6ZN18 whole entry partner): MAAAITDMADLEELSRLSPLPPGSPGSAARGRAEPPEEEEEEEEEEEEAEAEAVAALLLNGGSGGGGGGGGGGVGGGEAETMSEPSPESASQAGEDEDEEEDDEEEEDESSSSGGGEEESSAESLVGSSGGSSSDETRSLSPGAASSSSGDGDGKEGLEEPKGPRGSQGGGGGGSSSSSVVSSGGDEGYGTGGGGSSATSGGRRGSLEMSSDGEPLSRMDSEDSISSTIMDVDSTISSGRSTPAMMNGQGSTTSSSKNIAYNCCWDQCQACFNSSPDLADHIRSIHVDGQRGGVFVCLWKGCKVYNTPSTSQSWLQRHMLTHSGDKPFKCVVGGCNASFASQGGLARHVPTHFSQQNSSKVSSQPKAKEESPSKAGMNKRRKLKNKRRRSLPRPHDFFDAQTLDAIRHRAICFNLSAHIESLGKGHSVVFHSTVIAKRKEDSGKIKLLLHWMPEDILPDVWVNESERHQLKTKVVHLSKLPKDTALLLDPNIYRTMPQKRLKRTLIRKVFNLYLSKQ

“And” between values parts separate entries of the source, which are not always exact repeats. Equal entries are not always repeated.

Take `NC(=O)NO` [Hydroxyurea, hydroxyurea]: the “Percentage of γ-globin proteins relative to total β-like globin proteins” value is 8.1% and 10.3% in assay [1] (day 11, 10 μM); 8.1% and 10.3% and 14.3% in assay [1] (day 11, 50 μM).
Consider `Cc1c(C(=O)NC(CCC2CC2)C(=O)Nc2ccc(C#N)cc2)[nH]c2c1C(=O)CC(C)(C)C2` (stereo not drawn) [RK-701], for which the IC50 was 0.023 µM at G9a; over 100 µM against PRMT4 (PRMT4, 1 μM SAM); over 100 µM at PRMT4 (PRMT4, RK-701 in duplicate); over 100 µM against EZH1.
